The record followed here is patent publication US20240417405A1, “Substituted Spiro Derivatives” (Janssen Pharmaceutica NV, priority 2021, published 2024).

Test [1] deals with T1, menin/MLL (terbium chelate-labeled menin, FITC-MBM1 peptide) (Homo sapiens, UniProt O00255, T541A).
T1 construct: Menin (a.a 1-610-6xhis tag)
T1 sequence (O00255 with tags, fused parts or gaps T541A): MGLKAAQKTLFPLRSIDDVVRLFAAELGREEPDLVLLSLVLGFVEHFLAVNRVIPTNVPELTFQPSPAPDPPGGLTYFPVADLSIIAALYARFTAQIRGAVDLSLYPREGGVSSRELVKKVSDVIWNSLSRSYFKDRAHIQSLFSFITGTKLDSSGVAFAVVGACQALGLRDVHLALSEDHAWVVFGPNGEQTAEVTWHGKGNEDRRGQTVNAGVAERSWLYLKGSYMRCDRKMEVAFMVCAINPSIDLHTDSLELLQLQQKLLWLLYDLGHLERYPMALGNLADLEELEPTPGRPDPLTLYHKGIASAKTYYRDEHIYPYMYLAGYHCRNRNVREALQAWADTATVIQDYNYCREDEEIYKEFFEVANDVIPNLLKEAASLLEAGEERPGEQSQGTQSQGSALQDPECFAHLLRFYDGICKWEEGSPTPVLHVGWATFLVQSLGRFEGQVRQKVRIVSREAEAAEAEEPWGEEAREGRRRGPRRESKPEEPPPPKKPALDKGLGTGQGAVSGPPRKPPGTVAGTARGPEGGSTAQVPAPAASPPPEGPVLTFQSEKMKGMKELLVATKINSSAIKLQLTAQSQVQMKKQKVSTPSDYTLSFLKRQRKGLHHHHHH
Description: Menin/MLL homogenous time-resolved fluorescence (HTRF) assay. To be noted: 30 min incubation. Format: binding. An outline of the steps:
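Compounds were preincubated 30 min at ambient temperature with 200 pM terbium-labeled menin (aa 1-610, His-tagged) in Tris pH 7.5 buffer with DTT and Pluronic, then 75 nM FITC-MBM1 peptide added for 15 min. HTRF ratio 520/490 nm gave % inhibition; IC50 from four-parameter fit, floor 0.1 nM.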

The test system of another test is MOLM14 cells. Description: Proliferation assay, spheroid-like growth, MOLM14 (MLL-AF9 rearranged). Format: cell-based, human. To be noted: Homo sapiens, MOLM-14, 192 h, 8 days, confluence as measure of spheroid size, read-out: spheroid assay_OneTime MOLM14 IC50. In a few lines:
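IC50 derived from a variable-slope dose-response fit of percent confluence change, with DMSO-treated cells as high control and high-dose reference compound as low control. Spheroid-like growth of MOLM14 (200 cells/well) or KO-52 (300 cells/well) in ultra-low attachment plates, 8 days, 37° C, 5% CO2, DMSO normalised to 0.3%, imaged at day 8.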

By IC50 is commonly meant the midpoint of a concentration-inhibition curve. For the molecule `CNC(=O)c1coc(N[C@H]2C[C@@H](C(C)N3CC4(CCN(c5ncnnc5Oc5ccc(F)cc5-c5cncnc5C5CC5)C4)C3)C2)n1` (single isomer, unassigned) [Compound 461], the IC50 in test [1] came out at 0.2 nM; in the test with MOLM14 cells it was 63 nM.
Consider `CC(C)[C@H]([C@H]1C[C@@H](N2CCC(C(=O)N(C)C)C2)C1)N1CC2(CCN(c3ncnnc3Oc3ccc(F)cc3-c3cncnc3C3CC3)C2)C1` (mixture of isomers) [Compound 210], for which the IC50 was 0.1 nM in test [1] and 5 nM in the test with MOLM14 cells.
Turning to `CNC(=O)CCN(C)[C@H]1C[C@@H]([C@@H](C(C)C)N2CC3(CCN(c4ncnnc4Oc4ccc(F)cc4-c4cncnc4C4CC4)C3)C2)C1` (single isomer, unassigned) [Compound 350], the results for the IC50 (in test [1]; in the test on MOLM14 cells) were 0.1 nM and 10 nM, respectively.
As to `CC(C)[C@H]([C@H]1C[C@@H](N2CCC3(CCO3)C2)C1)N1CC2(CCN(c3ncnnc3Oc3ccc(F)cc3-c3nnccc3C3CC3)C2)C1` (single isomer, unassigned) [Compound 269], the values for the IC50 (in test [1]; in the test with MOLM14 cells) were 5.6 nM and above 940 nM, respectively.
Turning to `COc1cc(N[C@H]2C[C@@H]([C@@H](C(C)C)N3CC4(CCN(c5ncnnc5Oc5ccc(F)cc5-c5cncnc5C5CC5)C4)C3)C2)cnn1` (single isomer, unassigned) [Compound 419], the IC50 in test [1] worked out at 0.14 nM; in the test on MOLM14 cells it was 5 nM.
With `CNC(=O)c1coc(N[C@H]2C[C@@H](C(C(C)C)N3CC4(CCN(c5ncnnc5Oc5ccc(F)cc5-c5cncnc5C5CC5)C4)C3)C2)n1` (single isomer, unassigned) [Compound 438], the IC50 in test [1] is 0.16 nM; in the test with MOLM14 cells, 4 nM.
Turning to `CC(=O)N[C@H]1CCN([C@H]2C[C@@H]([C@H](C(C)C)N3CC4(CCN(c5ncnnc5Oc5ccc(F)cc5-c5cnc(C)nc5C5CC5)C4)C3)C2)C1` [Compound 388], the IC50 in test [1] is 0.027 nM; in the test on MOLM14 cells it was below 1.8 nM.
In the same order, the values of `C[C@@H]([C@H]1C[C@@H](N)C1)N1CC2(CCN(c3ncnnc3Oc3ccc(F)cc3-c3cncnc3C3CC3)C2)C1` (single isomer, unassigned) [Compound 441] are 0.92 nM and 680 nM.
Regarding `CNC(=O)c1sc(N[C@H]2C[C@@H]([C@@H](C(C)C)N3CC4(CCN(c5ncnnc5Oc5ccc(F)cc5-c5cncnc5C5CC5)C4)C3)C2)nc1C` (single isomer, unassigned) [Compound 443], the IC50 was 0.08 nM in test [1] and 4 nM in the test on MOLM14 cells.
Consider `CNC(=O)c1cc(N[C@H]2C[C@@H]([C@@H](C(C)C)N3CC4(CCN(c5ncnnc5Oc5ccc(F)cc5-c5cncnc5C5CC5)C4)C3)C2)cnn1` (single isomer, unassigned) [Compound 432], for which the IC50 in test [1] worked out at 0.17 nM; in the test with MOLM14 cells it was 22 nM.
On to `CNC(=O)c1nnc(N[C@H]2C[C@@H]([C@@H](C(C)C)N3CC4(CCN(c5ncnnc5Oc5ccc(F)cc5-c5cncnc5C5CC5)C4)C3)C2)s1` (single isomer, unassigned) [Compound 442], for which the IC50 in test [1] worked out at 0.21 nM; in the test with MOLM14 cells it was 4 nM.
As for `CC(C)[C@@H]([C@H]1C[C@@H](N2CCC3(CCCO3)C2)C1)N1CC2(CCN(c3ncnnc3Oc3ccc(F)cc3-c3nnccc3C3CC3)C2)C1` (single isomer, unassigned) [Compound 270], the IC50 worked out at 0.2 nM in test [1] and 2 nM in the test on MOLM14 cells.
As to `CC(=O)N1CCN([C@H]2C[C@@H]([C@H](C(C)C)N3CC4(CCN(c5ncnnc5Oc5ccc(F)cc5-c5nnccc5C5CC5)C4)C3)C2)CC1` (single isomer, unassigned) [Compound 277], the IC50 in test [1] turned out to be 0.9 nM; in the test on MOLM14 cells, 250 nM.
As for `CC(C)[C@@H]([C@H]1C[C@@H](N2CCC3(CCO3)CC2)C1)N1CC2(CCN(c3ncnnc3Oc3ccc(F)cc3-c3cnncc3C3CC3)C2)C1` (single isomer, unassigned) [Compound 281a], the IC50 in test [1] is 0.17 nM; in the test on MOLM14 cells, 10 nM.
In the same order, the values of `CC(C)[C@H]([C@H]1C[C@@H](Nc2ccn3ccnc3n2)C1)N1CC2(CCN(c3ncnnc3Oc3ccc(F)cc3-c3cncnc3C3CC3)C2)C1` (single isomer, unassigned) [Compound 412] are 0.16 nM and below 1.8 nM.
In the case of `CC(C)[C@H]([C@H]1C[C@@H](Nc2ccnc(N)n2)C1)N1CC2(CCN(c3ncnnc3Oc3ccc(F)cc3-c3cncnc3C3CC3)C2)C1` (single isomer, unassigned) [Compound 463], the IC50 came to 0.082 nM in test [1] and 29 nM with MOLM14 cells.
Consider `CC(=O)N1CC2(C1)CN([C@H]1C[C@@H]([C@H](C(C)C)N3CC4(CCN(c5ncnnc5Oc5ccc(F)cc5-c5cnc(C)nc5C5CC5)C4)C3)C1)C2` [Compound 394], for which the results for the IC50 (in test [1]; in the test with MOLM14 cells) were 0.083 nM and 3 nM, respectively.
On to `CC(=O)Nc1nnc(N[C@H]2C[C@@H]([C@@H](C(C)C)N3CC4(CCN(c5ncnnc5Oc5ccc(F)cc5-c5cncnc5C5CC5)C4)C3)C2)s1` (single isomer, unassigned) [Compound 454], for which the values for the IC50 (in test [1]; with MOLM14 cells) were 0.17 nM and 13 nM, respectively.
Regarding `CC(C)[C@H]([C@H]1C[C@@H](NC2CS(=O)(=O)C2)C1)N1CC2(CCN(c3ncnnc3Oc3ccc(F)cc3-c3cncnc3C3CC3)C2)C1` (single isomer, unassigned) [Compound 235], the IC50 in test [1] was found to be 0.5 nM; in the test on MOLM14 cells, 3 nM.
Turning to `Cc1cc(C2CC2)c(-c2cc(F)ccc2Oc2nncnc2N2CCC3(C2)CN([C@@H](C(C)C)[C@H]2C[C@H](N4C[C@@H]5[C@H](C4)[C@H]5C(=O)N(C)C)C2)C3)nn1` [Compound 401], the half-inhibitory concentration (IC50) in test [1] came to 0.52 nM; in the test with MOLM14 cells it was 260 nM.
For the molecule `CC(C)[C@@H]([C@H]1C[C@@H](NC2CC2)C1)N1CC2(CCN(c3ncnnc3Oc3ccc(F)cc3-c3nnccc3C3CC3)C2)C1` (single isomer, unassigned) [Compound 272], the IC50 in test [1] was 0.1 nM; in the test with MOLM14 cells, 21 nM.
As to `CC(C)[C@H]([C@H]1C[C@@H](N2CC3(CNC(=O)O3)C2)C1)N1CC2(CCN(c3ncnnc3Oc3ccc(F)cc3-c3cncnc3C3CC3)C2)C1` (single isomer, unassigned) [Compound 317], the results for the concentration for half-maximal inhibition (IC50) (in test [1]; with MOLM14 cells) were 0.3 nM and 60 nM, respectively.
